Reference: publication PMC9841525, “Chemical Blockage of the Mitochondrial Rhomboid Protease PARL by Novel Ketoamide Inhibitors Reveals Its Role in PINK1/Parkin-Dependent Mitophagy” (Journal of Medicinal Chemistry, 2022)
*1 amine or outer side, *2 acyl side, *3 side chain or, on linkers, in order; H or OH if unused. Where a SMILES comes first, the peptide text is derived from it. [ ]: non-standard residue; d: D form. The star is where a group is joined. NH(4-phenylbutyl) = c1ccc(CCCCN*)cc1; X1 = C[C@H](N[*:1])C(=O)C(=O)[*:2]

What was measured:
[1] = biological target: T1, PARL (Homo sapiens, UniProt Q9H300); assay: PARL inhibition assay in cells: cleavage of overexpressed PGAM5-Myc by tetracycline-induced PARL-FLAG, immunoblot; type: cell-based; set-up: expressed in transfected cells; host or cells: Flp-In HEK293 T-REx PARL knockout cells
T1 sequence (Q9H300 53-379): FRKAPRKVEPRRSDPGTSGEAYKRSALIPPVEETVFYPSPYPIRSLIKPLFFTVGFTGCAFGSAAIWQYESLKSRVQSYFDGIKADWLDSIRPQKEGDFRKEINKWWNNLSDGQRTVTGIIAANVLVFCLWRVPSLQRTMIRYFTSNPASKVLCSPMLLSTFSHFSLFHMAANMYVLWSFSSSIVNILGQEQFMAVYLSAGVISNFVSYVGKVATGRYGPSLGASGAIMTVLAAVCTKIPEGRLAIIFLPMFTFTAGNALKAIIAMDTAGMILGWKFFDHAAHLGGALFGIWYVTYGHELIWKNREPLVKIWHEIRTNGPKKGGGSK
Method: PARL inhibition assays in cells were carried out in Flp-In HEK293 T-REx PARL knockout cells stably transfected with tetracycline inducible PARL-FLAG grown in DMEM (Gibco) supplemented with 10% (v/v) tetracycline-free fetal bovine serum (Clontech). For the inhibition assay, 0.7 × 10^6 cells were seeded per well of a 6-well plate, and the next day transfected with 5 μg of human PGAM5-Myc in pcDNA and 15 μg of branched polyethylenimine (Polysciences) per well. Four hours after transfection, the PARL expression was induced by adding tetracycline to 1 μg/mL. Eight hours after transfection, the inhibitors were added to each well in different concentrations in serum-free DMEM with 1% DMSO.
For immunoblot analysis of the effects of PARL inhibitors on PGAM5 cleavage, after overnight incubation with inhibitors, cells from each well were harvested in 1× SDS sample buffer containing 20 mM MgCl2 and Pierce universal nuclease (250 U/mL, Thermo Scientific) and heated to 65 °C for 10 min. Loading volumes for SDS-PAGE were adjusted by measuring total protein concentration in the lysates with Pierce 660 nm Protein Assay Reagent and Ionic Detergent Compatibility Reagent for Pierce 660 nm Protein Assay Reagent (Thermo Scientific). Samples were resolved by SDS-PAGE using a 12% polyacrylamide gel (Biorad) and electrotransferred onto an Immobilon PVDF membrane (Merck Millipore). Blots were blocked using casein blocker (Thermo Scientific) and hPGAM5 was labeled by rabbit anti-Myc antibody (Cell Signaling Technology, cat. #2278, dilution 1:1000) at 4 °C overnight. Blots were washed three times with TBS-T and incubated with IRDye 800 CW donkey anti-rabbit antibody (Invitrogen, cat. #SA5-10044, dilution 1:10,000) at room temperature for 2 h. Membranes were then again washed three times with TBS-T and one time with TBS. Fluorescence emission at […] of dried membranes was scanned on Odyssey CLx (LI-COR). Cleavage efficiency and inhibition were analyzed as described[23] using Image Studio Lite (LI-COR), Excel (Microsoft) and GraphPad Prism 9 (GraphPad Software, Inc.).

[2] = biological target: T1, PARL; assay: PARL inhibition in vitro, PARL in liposomes with substrate compound 4; type: biochemical; set-up: hexahistidine tag (C); made in house; host or cells: continuous-exchange cell-free expression in bacterial lysates with T7 polymerase (CUBE biotech), into liposomes
Method: Liposome preparation and cell-free protein expression of PARL were carried out essentially as described previously.[27] Liposomes resembling the lipid composition of the IMM were prepared by mixing 40% DOPC (1,2-dioleoyl-sn-glycero-3-phosphocholine), 33.8% DOPE (1,2-dioleoyl-sn-glycero-3-phosphoethanolamine), 18% CL(18:1)4 (1′,3′-bis[1,2-dioleyl-sn-glycero-3-phospho]-glycerol), 3% DOPS (1,2-dioleoyl-sn-glycero-3-phospho-L-serine), 5% soy-PI (L-α-phosphatidylinositol), and 0.2% rhodamine-PE (1,2-dioleoyl-sn-glycero-3-phosphoethanolamine-N-(lissamine rhodamine B sulfonyl)) in chloroform, followed by the evaporation of chloroform by a stream of nitrogen gas and drying in a vacuum chamber (Binder) for 1 h. Dried lipids were dissolved in buffer (5 mM Tris/HCl, pH 8.5, 10 mM KOAc) and extruded 21 times through a mini extruder (Avanti Polar Lipids) using a polycarbonate membrane with a pore size of […]. […] The PARL-containing liposomes were purified by a step-wise sucrose step-gradient centrifugation (0, 15, 30, and 40% sucrose in 5 mM HEPES pH 7.5 with 25 mM NaCl) for 2 h at 200,000 × g. Soluble proteoliposomes were harvested at the 0%/15% sucrose interface after the centrifugation. Concentration of PARL was determined by absorption at 280 nm.
PARL inhibition in vitro was measured in 5 mM Tris, 5 mM Mg(OAc)2, 25 μM Zn(OAc)2, 0.1 μg/μL BSA, 10% DMSO, pH 8.0 using PARL in liposomes at 0.07 mg/mL and compound 4 at 100 μM final concentration. Inhibitor concentrations were determined by quantitative amino acid analysis. Inhibitors in DMSO were dissolved at the respective concentrations into the reaction buffer by vigorous mixing at 1000 rpm, 37 °C for 40 min and then pre-incubated with PARL in liposomes at 37° for 1 h. The cleavage reaction was started by adding compound 4 and carried out at 37 °C in 96-well black HTS plates (Greiner Bio-One). Fluorescence was read in a plate reader (Tecan Infinite M1000) with excitation and emission wavelengths set to 355 and 450 nm, respectively. Data were evaluated using Excel (Microsoft) and GraphPad Prism 9 (GraphPad Software, Inc.). The data shown are representative of at least three independent experiments.

CC(=O)N[C@@H](C)C(=O)N[C@H](C(=O)N[C@@H](Cc1ccccc1)C(=O)N[C@@H](CC(C)C)C(=O)N[C@@H](C)C(=O)C(=O)NCCCCc1ccccc1)C(C)C [compound 5] (Ac-AVFL[X1]-{NH(4-phenylbutyl)})
IC50 ([1]; Flp-In HEK293 T-REx PARL KO cells with inducible PARL-FLAG, PGAM5-Myc, mean ± SEM of four or three experiments, read-out: Apparent IC50, PGAM5 cleavage by overexpressed PARL): 410 nM
Fold better than compound 6 in cells ([1]; ratio of apparent IC50 values, compound 5 vs compound 6): about 8 fold
Fold better than compound 6 in vitro ([2]; ratio of IC50 values, compound 5 vs compound 6): about 3 fold
IC50 ([2]; recombinant mature PARL in liposomes, 100 μM substrate compound 4, mean ± SEM of three or four measurements): 28 nM
